Kd data for two compounds are collected here from paper PMC6212536, “Allosteric Site Inhibitor Disrupting Auto-Processing of Malarial Cysteine Proteases” (Scientific Reports, 2018).

Usually Kd stands for the constant that tells how readily two partners part at equilibrium. High values mean weaker binding, low ones tighter binding.

Assay [1] concerns the target T1, pro-falcipain-2 (pro-FP2) (Plasmodium falciparum, UniProt Q8I6U4).
T1 construct: gene FP2A
Nature of the assay: SPR, immobilized pro-enzyme; auto-processing also blocked. The class given is binding. (Surface plasmon resonance follows binding to a sensor surface in real time, without labels.)

Assay [2] deals with pro-falcipain-3 (pro-FP3) (Plasmodium falciparum, UniProt Q8IIL0). Described as above. Format: binding.
pro-falcipain-3 (pro-FP3), sequence (Q8IIL0 57-492): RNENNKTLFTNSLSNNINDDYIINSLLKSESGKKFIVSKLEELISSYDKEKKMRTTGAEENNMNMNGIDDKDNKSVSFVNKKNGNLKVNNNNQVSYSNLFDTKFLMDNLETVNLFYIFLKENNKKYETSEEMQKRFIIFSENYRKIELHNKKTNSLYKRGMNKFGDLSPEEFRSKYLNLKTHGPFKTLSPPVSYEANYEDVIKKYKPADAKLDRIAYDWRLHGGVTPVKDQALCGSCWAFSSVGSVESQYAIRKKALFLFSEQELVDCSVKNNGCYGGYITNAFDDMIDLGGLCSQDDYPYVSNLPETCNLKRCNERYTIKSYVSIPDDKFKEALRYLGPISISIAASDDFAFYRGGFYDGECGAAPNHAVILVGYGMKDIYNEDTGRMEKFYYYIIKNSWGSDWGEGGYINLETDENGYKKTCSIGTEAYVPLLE

T1 sequence (Q8I6U4 208-484): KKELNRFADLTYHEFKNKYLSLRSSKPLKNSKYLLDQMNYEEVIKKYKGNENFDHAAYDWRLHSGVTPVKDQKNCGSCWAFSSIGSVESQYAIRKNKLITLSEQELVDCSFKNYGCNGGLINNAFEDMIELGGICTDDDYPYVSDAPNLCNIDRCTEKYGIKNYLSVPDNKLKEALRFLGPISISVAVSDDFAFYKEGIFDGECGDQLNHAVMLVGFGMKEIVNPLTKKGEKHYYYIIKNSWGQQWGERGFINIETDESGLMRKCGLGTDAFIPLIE

Consider `O=C(CC1(CNC(=O)c2cnccn2)CCCCC1)NNC(=O)c1cnccn1` [NA-01], for which the Kd in assay [1] amounted to 1.72 ± 0.03 nM; in assay [2] it was 5.14 ± 0.07 nM.

On to `O=C(CC1(NC(=O)c2cnccn2)CCCCC1)NNC(=O)c1cnccn1` [NA-03], for which the dissociation constant (Kd) in assay [1] is 1.67 ± 0.01 nM; in assay [2], 2 ± 0.04 nM.
